Experimental findings from ChEMBL document CHEMBL4020766, “Design and synthesis of potent inhibitors of the mono(ADP-ribosyl)transferase, PARP14” (Bioorg Med Chem Lett, 2017) are described below.

The inhibition is the relative decrease from the control value, in per cent.

In test [1] the target is T1, Protein mono-ADP-ribosyltransferase PARP14 (Homo sapiens, UniProt Q460N5). As to the kind of experiment: Inhibition of recombinant human His6-tagged PARP14 catalytic/WWE domain (1459 to 1801 residues) expressed in Escherichia coli BL21(DE3) preincubated for 15 mins followed by biotinylated NAD+ addition by chemiluminescence assay.
T1 sequence (Q460N5 whole entry, the tested form may be a part): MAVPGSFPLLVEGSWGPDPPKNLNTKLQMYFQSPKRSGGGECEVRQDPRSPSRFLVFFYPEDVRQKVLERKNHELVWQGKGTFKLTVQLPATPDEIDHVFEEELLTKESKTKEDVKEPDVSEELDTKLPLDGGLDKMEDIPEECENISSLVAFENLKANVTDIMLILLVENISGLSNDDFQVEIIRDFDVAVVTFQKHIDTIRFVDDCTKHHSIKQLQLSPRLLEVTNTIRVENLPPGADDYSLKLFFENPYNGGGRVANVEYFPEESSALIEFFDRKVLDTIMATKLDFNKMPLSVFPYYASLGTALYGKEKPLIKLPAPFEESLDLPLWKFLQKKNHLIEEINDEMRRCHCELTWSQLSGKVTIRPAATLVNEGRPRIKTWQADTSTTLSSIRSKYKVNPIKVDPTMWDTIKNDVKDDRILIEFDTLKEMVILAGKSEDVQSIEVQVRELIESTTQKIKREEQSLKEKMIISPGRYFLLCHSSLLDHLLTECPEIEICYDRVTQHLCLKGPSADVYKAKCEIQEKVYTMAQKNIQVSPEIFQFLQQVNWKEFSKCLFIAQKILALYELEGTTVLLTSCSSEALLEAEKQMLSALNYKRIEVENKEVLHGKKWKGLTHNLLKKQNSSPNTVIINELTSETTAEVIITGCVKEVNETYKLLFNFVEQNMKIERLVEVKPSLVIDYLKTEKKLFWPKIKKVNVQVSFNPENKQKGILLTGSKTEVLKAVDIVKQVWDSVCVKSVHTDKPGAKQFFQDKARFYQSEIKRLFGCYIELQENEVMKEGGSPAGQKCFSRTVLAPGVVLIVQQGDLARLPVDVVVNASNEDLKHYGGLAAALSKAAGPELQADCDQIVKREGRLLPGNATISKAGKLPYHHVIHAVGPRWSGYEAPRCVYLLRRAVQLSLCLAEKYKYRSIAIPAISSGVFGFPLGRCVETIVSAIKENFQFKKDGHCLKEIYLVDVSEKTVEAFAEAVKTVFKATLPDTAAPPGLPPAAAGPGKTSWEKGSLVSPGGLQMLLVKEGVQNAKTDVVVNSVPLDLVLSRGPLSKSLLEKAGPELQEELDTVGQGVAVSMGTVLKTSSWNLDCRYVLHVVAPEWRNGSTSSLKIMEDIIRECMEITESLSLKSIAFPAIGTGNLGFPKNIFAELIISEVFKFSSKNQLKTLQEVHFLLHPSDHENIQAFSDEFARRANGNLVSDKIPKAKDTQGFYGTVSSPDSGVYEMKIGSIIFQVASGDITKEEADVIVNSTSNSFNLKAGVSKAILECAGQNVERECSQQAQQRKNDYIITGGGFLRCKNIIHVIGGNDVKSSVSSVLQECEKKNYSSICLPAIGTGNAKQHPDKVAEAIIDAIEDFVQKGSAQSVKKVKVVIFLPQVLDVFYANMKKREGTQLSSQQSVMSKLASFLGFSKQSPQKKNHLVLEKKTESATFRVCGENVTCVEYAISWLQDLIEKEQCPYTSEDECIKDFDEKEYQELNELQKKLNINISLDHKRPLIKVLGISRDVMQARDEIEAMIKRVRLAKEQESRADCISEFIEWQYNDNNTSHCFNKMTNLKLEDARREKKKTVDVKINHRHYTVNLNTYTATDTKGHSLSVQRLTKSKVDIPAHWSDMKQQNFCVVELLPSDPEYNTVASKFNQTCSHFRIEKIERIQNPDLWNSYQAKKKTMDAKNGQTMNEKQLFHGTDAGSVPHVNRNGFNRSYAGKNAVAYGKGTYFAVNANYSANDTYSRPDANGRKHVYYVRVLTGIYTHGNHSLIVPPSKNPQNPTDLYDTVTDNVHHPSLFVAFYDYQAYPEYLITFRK
Test [2] addresses T2, Poly [ADP-ribose] polymerase 1 (Homo sapiens, UniProt P09874). The test is described as follows: Inhibition of recombinant human full length His6-tagged PARP1 expressed in Escherichia coli BL21(DE3) preincubated for 15 mins followed by biotinylated NAD+ addition by chemiluminescence assay.
The target in test [3] is T3, Poly [ADP-ribose] polymerase tankyrase-1 (Homo sapiens, UniProt O95271).
T3 sequence (O95271 whole entry): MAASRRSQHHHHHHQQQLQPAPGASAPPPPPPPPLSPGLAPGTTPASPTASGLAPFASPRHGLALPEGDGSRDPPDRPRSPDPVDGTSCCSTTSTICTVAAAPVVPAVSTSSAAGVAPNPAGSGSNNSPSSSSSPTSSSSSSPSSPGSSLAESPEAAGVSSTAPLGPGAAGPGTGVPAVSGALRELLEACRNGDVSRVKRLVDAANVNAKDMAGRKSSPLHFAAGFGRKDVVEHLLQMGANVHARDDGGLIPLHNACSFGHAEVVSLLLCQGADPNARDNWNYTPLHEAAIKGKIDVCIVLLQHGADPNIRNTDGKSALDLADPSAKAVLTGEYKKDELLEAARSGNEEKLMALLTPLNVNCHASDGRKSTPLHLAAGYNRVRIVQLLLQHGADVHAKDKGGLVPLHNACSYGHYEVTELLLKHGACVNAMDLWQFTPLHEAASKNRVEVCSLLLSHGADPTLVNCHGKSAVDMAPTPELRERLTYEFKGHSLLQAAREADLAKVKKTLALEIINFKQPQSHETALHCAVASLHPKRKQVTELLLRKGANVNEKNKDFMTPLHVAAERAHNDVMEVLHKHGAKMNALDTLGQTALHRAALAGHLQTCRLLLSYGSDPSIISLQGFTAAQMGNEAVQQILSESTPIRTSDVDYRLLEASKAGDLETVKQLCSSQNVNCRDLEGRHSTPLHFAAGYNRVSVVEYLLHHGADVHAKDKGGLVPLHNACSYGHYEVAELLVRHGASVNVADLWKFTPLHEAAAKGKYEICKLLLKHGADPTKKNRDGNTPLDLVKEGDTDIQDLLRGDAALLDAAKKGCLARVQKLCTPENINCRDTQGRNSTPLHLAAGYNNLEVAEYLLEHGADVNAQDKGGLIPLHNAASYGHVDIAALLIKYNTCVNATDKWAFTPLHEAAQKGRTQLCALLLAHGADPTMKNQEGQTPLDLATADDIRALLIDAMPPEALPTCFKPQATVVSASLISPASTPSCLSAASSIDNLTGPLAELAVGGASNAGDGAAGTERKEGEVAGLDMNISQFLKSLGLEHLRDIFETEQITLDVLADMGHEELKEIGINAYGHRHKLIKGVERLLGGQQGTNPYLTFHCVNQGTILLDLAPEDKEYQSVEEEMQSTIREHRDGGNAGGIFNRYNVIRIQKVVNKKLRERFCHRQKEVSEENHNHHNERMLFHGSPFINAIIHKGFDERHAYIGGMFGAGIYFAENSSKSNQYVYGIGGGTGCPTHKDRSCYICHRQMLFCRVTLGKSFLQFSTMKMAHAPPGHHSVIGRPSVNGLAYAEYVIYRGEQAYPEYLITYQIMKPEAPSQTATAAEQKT
As to the kind of experiment: Inhibition of recombinant human His6-tagged PARP5a catalytic domain (1091 to 1325 residues) expressed in Escherichia coli BL21(DE3) preincubated for 15 mins followed by biotinylated NAD+ addition by chemiluminescence assay.

The species named for test [4] is Homo sapiens. The test is described as follows: Selectivity ratio of IC50 for recombinant human His6-tagged PARP5a catalytic domain (1091 to 1325 residues) to IC50 for recombinant human His6-tagged PARP14 catalytic/WWE domain (1459 to 1801 residues).
The target in test [5] is T4, Protein mono-ADP-ribosyltransferase PARP12 (Homo sapiens, UniProt Q9H0J9).
T4 sequence (Q9H0J9 whole entry): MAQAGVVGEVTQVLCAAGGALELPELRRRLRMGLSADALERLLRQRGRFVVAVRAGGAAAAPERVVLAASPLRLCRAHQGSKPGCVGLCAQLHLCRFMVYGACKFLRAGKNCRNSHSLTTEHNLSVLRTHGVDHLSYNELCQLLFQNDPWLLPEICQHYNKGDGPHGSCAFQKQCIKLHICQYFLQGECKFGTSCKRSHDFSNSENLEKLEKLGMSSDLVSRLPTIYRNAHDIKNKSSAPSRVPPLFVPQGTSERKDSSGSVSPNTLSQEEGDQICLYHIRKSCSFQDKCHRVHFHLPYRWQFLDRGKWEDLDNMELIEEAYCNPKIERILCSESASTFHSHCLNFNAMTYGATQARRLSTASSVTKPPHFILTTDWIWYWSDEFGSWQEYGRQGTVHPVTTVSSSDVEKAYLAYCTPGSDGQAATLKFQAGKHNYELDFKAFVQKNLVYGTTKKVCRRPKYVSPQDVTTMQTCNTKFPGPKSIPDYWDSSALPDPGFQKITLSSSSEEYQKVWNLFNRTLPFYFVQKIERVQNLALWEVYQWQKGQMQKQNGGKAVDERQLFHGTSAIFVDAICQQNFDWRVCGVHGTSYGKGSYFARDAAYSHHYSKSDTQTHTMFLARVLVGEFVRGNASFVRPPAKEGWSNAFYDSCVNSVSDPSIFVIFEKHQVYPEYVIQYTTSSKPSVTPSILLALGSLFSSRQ
As to the kind of experiment: Inhibition of His6-tagged PARP12 (unknown origin) preincubated for 15 mins followed by biotinylated NAD+ addition by chemiluminescence assay.

Test [6] has as its target T5, Protein mono-ADP-ribosyltransferase PARP15 (Homo sapiens, UniProt Q460N3).
T5 sequence (Q460N3 whole entry): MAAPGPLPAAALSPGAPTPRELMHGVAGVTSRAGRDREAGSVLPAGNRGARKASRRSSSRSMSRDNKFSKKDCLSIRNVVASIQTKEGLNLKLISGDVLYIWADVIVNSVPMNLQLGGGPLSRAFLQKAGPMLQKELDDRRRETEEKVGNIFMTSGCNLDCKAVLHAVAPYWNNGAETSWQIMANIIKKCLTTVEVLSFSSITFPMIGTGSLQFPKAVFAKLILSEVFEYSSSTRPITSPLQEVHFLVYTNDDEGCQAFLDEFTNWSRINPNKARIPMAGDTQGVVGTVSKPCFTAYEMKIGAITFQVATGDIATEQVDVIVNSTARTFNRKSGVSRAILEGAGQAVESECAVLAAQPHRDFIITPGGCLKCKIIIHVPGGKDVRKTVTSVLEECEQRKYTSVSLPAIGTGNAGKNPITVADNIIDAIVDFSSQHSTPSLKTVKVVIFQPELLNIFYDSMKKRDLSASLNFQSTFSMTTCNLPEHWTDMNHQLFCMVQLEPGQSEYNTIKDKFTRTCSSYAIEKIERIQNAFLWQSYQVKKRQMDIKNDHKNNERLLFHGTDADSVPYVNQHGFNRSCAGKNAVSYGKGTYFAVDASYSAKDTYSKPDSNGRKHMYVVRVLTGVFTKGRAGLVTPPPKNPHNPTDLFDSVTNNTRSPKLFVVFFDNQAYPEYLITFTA
As to the kind of experiment: Inhibition of His6-tagged PARP15 (unknown origin) preincubated for 15 mins followed by biotinylated NAD+ addition by chemiluminescence assay.

Test [7] addresses T6, Protein mono-ADP-ribosyltransferase PARP16 (Homo sapiens, UniProt Q8N5Y8).
T6 sequence (Q8N5Y8 whole entry): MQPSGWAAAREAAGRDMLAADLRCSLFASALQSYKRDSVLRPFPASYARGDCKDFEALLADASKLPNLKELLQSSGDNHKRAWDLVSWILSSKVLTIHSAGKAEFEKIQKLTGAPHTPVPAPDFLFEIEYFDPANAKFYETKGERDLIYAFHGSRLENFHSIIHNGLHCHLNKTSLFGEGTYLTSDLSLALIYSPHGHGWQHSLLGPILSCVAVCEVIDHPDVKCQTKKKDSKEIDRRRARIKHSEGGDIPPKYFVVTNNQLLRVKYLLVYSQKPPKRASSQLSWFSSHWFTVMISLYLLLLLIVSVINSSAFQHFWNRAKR
The test is described as follows: Inhibition of His6-tagged PARP16 (unknown origin) preincubated for 15 mins followed by biotinylated NAD+ addition by chemiluminescence assay.

Test [8] addresses T1, Protein mono-ADP-ribosyltransferase PARP14. As to the kind of experiment: Inhibition of recombinant human His6-tagged PARP14 catalytic/WWE domain (1459 to 1801 residues) expressed in Escherichia coli BL21(DE3) at 5 uM preincubated for 15 mins followed by biotinylated NAD+ addition by chemiluminescence assay relative to control.
Test [9] addresses T2, Poly [ADP-ribose] polymerase 1. The test is described as follows: Inhibition of recombinant human full length His6-tagged PARP1 expressed in Escherichia coli BL21(DE3) at 5 uM preincubated for 15 mins followed by biotinylated NAD+ addition by chemiluminescence assay relative to control.

T2 sequence (P09874 whole entry): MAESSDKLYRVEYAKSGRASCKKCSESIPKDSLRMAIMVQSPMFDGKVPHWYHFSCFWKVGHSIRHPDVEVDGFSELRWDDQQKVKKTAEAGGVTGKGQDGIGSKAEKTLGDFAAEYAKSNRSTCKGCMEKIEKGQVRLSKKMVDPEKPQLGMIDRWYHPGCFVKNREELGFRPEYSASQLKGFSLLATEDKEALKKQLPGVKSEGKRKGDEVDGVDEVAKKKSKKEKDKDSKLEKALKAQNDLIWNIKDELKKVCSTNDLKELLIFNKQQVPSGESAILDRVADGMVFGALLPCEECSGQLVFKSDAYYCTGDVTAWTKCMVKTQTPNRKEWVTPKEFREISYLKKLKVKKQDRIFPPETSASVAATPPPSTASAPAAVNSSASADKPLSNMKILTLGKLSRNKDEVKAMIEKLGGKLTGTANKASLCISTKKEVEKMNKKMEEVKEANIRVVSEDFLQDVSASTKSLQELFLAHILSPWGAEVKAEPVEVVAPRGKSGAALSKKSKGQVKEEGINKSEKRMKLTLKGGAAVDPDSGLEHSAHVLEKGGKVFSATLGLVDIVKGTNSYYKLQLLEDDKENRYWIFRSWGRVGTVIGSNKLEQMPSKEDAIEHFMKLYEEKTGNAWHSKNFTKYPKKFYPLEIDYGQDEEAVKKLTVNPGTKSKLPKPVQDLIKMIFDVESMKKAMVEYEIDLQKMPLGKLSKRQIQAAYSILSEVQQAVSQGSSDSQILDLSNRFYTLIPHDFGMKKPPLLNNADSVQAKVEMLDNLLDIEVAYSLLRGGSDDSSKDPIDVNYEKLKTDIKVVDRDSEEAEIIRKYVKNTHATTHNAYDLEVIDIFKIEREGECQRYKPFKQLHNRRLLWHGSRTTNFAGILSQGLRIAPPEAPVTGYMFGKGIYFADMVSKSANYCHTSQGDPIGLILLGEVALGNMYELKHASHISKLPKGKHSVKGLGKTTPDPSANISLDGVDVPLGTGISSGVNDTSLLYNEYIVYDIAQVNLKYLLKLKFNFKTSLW

With `NC(=O)c1cccc(NC(=O)/C=C\C(=O)N2CCC(Cc3ccccc3)CC2)c1`, the values for the IC50 in [1] (read-out: IC50), in [2] and in [3] (read-out: IC50) were 0.45 µM, 0.23 µM and 4.8 µM, respectively. Besides, the Ratio IC50 in test [4] was found to be 11.

For `NC(=O)c1cccc(N2C(=O)CC(N3CCN(c4ccccc4F)CC3)C2=O)c1` (stereo unspecified), the IC50 in test [1] (read-out: IC50) was above 20 µM.

On to `NC(=O)c1cccc(NC(=O)/C=C\C(=O)N2CCN(c3ccc(F)cc3)CC2)c1`, for which the IC50 is 0.7 µM in [1] (read-out: IC50); 0.56 µM in [2]; 2.7 µM in test [3] (read-out: IC50); 8.2 µM in test [5]; 0.52 µM in test [6]; 0.56 µM in test [7]. In addition, the Ratio IC50 in test [4] came out at 3.9.

On to `CC(C)(C)OC(=O)N1CCN(C(=O)/C=C\C(=O)Nc2cccc(C(N)=O)c2)CC1`, for which, in test [1] (read-out: IC50), the IC50 was 0.37 µM.

Turning to `NC(=O)c1cccc(NC(=O)/C=C\C(=O)N2CCC(CCc3ccccc3)CC2)c1`, the values for the IC50 in test [1] (read-out: IC50) and in [1] (read-out: pIC50 (converted)) were 0.65 µM and 0.676 µM, respectively.

Take `CCOC(=O)C1CCCN(C(=O)/C=C\C(=O)Nc2cccc(C(N)=O)c2)C1` (stereo unspecified): the inhibition in test [8] is 21%.

For the molecule `COc1ccc(N2CCN(C(=O)/C=C\C(=O)Nc3cccc(C(N)=O)c3)CC2)cc1`, the IC50 in [1] (read-out: IC50) was 3.4 µM.

With `NC(=O)c1cccc(NC(=O)/C=C\C(=O)N2CCCCC2Cc2ccccc2)c1` (stereo unspecified), the IC50 in test [1] (read-out: IC50) was 3.5 µM.

As for `NC(=O)c1cccc(NC(=O)/C=C\C(=O)N2CCCC(c3ccccc3)C2)c1` (stereo unspecified), the IC50 in test [1] (read-out: IC50) was 0.69 µM; in test [2], 1.6 µM; in test [3] (read-out: IC50), 2.7 µM; in [3] (read-out: pIC50 (converted)), 0.575 µM.

For the molecule `CCOC(=O)CC1CCN(C(=O)/C=C\C(=O)Nc2cccc(C(N)=O)c2)CC1`, the results for the IC50 in [1] (read-out: IC50) and in test [1] (read-out: pIC50 (converted)) were 2.4 µM and 0.407 µM, respectively.

With `NC(=O)c1cccc(NC(=O)/C=C\C(=O)N2CCCCC2c2ccccc2)c1` (stereo unspecified), the IC50 in [1] (read-out: IC50) came out at 1.1 µM.

On to `NC(=O)c1cccc(NC(=O)/C=C\C(=O)N2CCC(c3ccc(F)cc3)CC2)c1`, for which the IC50 in test [1] (read-out: IC50) was 0.27 µM; in test [2], 0.27 µM; in test [3] (read-out: IC50), 8 µM. Further, in test [4], the Ratio IC50 turned out to be 30.

On to `NC(=O)c1cccc(NC(=O)/C=C\C(=O)N2CCN(c3ccccc3F)CC2)c1`, for which the values for the IC50 in [1] (read-out: IC50), in test [2] and in test [3] (read-out: IC50) were 0.41 µM, 0.51 µM and 9.4 µM, respectively. In addition, the Ratio IC50 in [4] stood at 23.

Take `NC(=O)c1cccc(NC(=O)/C=C\C(=O)N2CCN(c3ccc(Cl)cc3)CC2)c1`: the IC50 was 0.16 µM in test [1] (read-out: IC50); 0.617 µM in test [1] (read-out: pIC50 (converted)); 0.22 µM in test [2]; 0.9 µM in test [3] (read-out: IC50); 0.977 µM in [3] (read-out: pIC50 (converted)). Further, the Ratio IC50 in test [4] stood at 5.6.

`NC(=O)c1cccc(NC(=O)/C=C\C(=O)N2CCN(c3ncccn3)CC2)c1`: the IC50 in [1] (read-out: IC50) stood at 2.8 µM.

With `NC(=O)c1cccc(NC(=O)/C=C\C(=O)N2CCC(c3ccccc3)CC2)c1`, the IC50 in test [1] (read-out: IC50) was found to be 2.2 µM.

As to `NC(=O)c1cccc(NC(=O)/C=C\C(=O)N2CCCC(Oc3ccccc3)C2)c1` (stereo unspecified), the IC50 in [1] (read-out: IC50) came out at 1.4 µM. Moreover, the inhibition in [9] came out at 90%.

In the case of `NC(=O)c1cccc(NC(=O)/C=C\C(=O)N2CCN(c3ccccc3)CC2)c1`, the IC50 in test [1] (read-out: IC50) was determined as 0.9 µM; in test [2], 0.37 µM; in [3] (read-out: IC50), 6 µM. Further, in test [4], the Ratio IC50 came to 6.7.

For the molecule `NC(=O)c1cccc(NC(=O)/C=C\C(=O)N2CCN(c3ccc(-c4ccccc4)cc3)CC2)c1`, the values for the IC50 in test [1] (read-out: IC50), in test [2] and in test [3] (read-out: IC50) were 4.2 µM, 0.8 µM and 9.8 µM, respectively.

In the case of `CCOC(=O)C1CCN(C(=O)/C=C\C(=O)Nc2cccc(C(N)=O)c2)CC1`, the inhibition in test [8] was 28%.
